# Paper PMC8112869, “Therapeutic inhibition of keratinocyte TRPV3 sensory channel by local anesthetic dyclonine” (eLife, 2021)
# Tests used:
# [1] = biological target: T1, mouse TRPV3 (Mus musculus, UniProt Q8K424); test: Single-channel inside-out patch recording of TRPV3 from HEK 293T cells; type: cell-based; design: expressed in transfected cells; host or cells: HEK 293T
# T1 sequence (Q8K424 1-791): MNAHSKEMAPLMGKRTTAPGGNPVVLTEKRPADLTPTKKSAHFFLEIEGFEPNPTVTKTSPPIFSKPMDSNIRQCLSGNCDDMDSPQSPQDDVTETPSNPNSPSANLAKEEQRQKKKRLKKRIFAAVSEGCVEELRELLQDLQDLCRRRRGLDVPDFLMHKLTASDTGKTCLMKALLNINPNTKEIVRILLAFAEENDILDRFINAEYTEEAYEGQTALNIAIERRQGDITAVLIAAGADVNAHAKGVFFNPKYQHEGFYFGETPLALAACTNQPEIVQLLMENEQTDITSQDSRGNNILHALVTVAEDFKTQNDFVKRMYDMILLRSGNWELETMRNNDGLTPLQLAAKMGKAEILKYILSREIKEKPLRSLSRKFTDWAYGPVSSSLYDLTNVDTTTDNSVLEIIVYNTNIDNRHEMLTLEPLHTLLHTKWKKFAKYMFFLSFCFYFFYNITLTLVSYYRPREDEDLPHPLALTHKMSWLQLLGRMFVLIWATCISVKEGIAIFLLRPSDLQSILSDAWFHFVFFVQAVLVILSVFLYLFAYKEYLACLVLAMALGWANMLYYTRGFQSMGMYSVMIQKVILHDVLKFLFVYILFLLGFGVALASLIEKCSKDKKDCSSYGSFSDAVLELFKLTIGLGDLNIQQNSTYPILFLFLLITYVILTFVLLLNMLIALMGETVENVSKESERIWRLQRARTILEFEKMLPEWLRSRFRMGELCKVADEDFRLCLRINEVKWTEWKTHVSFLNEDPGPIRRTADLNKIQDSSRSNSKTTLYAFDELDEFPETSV
# Source text: Conventional whole-cell and excised patch-clamp recording methods were used. For the recombinant expressing system, green fluorescent EGFP was used as a surface marker for gene expression. Recording pipettes were pulled from borosilicate glass capillaries (World Precision Instruments) and fire-polished to a resistance between 2 and 4 MΩ when filled with internal solution containing (in mM) 140 CsCl, 2.0 MgCl2, 5 EGTA, and 10 HEPES, pH 7.4 (adjusted with CsOH). Bath solution contained (in mM): 140 NaCl, 5 KCl, 3 EGTA, and 10 HEPES, pH 7.4 adjusted with NaOH. For recordings in keratinocytes, the bath saline consisted of (in mM) 140 NaCl, 5 KCl, 2 MgCl2, 2 CaCl2, 10 glucoses, and 10 HEPES, pH 7.4 adjusted with NaOH, and the pipette solution contained (in mM) 140 CsCl, 5 EGTA, and 10 HEPES, pH 7.3 adjusted with CsOH. For single-channel recordings, the pipette solution and bath solution were symmetrical and contained (in mM) 140 NaCl, 5 KCl, 3 EGTA, and 10 HEPES, pH 7.4. Isolated cells were voltage clamped and held at –60 mV using an EPC10 amplifier with the Patchmaster software (HEKAElectronics, Lambrecht, Germany). For a subset of recordings, currents were amplified using an Axopatch 200B amplifier (Molecular Devices, Sunnyvale, CA) and recorded through a BNC-2090/MIO acquisition system (National Instruments, Austin, TX) using QStudio developed by Dr. Feng Qin at State University of New York at Buffalo. Whole-cell recordings were typically sampled at 5 kHz and filtered at 1 kHz, and single-channel recordings were sampled at 25 kHz and filtered at 10 kHz. The compensation of pipette series resistance and capacitance was compensated using the built-in circuitry of the amplifier (>80%) to reduce voltage errors. Exchange of external solution was performed using a gravity-driven local perfusion system. As determined by the conductance tests, the solution around a patch under study was fully controlled by the application of a flow rate of 100 μl/min or greater. Dyclonine hydrochloride, MTSET and carvacrol were purchased from MCE (MedChemExpress). Unless otherwise noted, all chemicals were purchased from Sigma (Millipore Sigma, St. Louis, MO). Water-insoluble reagents were dissolved in pure ethanol or DMSO to make a stock solution and diluted into the recording solution at the desired final concentrations before the experiment. […] In the scratching behavior experiments, carvacrol was first dissolved in 10% ethanol and then diluted in normal saline before administration. All experiments except those for heat activation were performed at room temperature (22–24℃).
# [2] = test system: T-Rex 293 cells expressing WT TRPV3; test: Cell death analysis by flow cytometry (propidium iodide), cells expressing WT TRPV3; type: cell-based, Homo sapiens
# Procedure: T-Rex 293 cells were grown in DMEM containing 4.5 mg/ml glucose, 10% (vol/vol) FBS, 50 units/ml penicillin, 50 μg/ml streptomycin, and blasticidin S (10 μg/ml), and were incubated at 37°C in a humidified incubator gassed with 5% CO2. Transfections were performed in wells of a 24-well plate using lipofectamine 2000 (Invitrogen). […] Expression of GFP fluorescence detected by an epifluorescence microscope was used as an indicator of gene expression. After treatments with the compounds for 12 hr, cells were collected, washed twice with PBS, resuspended, and then dyed with propidium iodide (PI, Thermo Fisher Scientific) in the dark according to the manufacturer’s instructions. The membrane integrity of the cells was assessed using a BD FACSCelesta flow cytometer equipped with BD Accuri C6 software (BD Biosciences, USA).
# [3] = test system: mouse dorsal root ganglia (DRG) and trigeminal ganglia (TG) neurons; test: Current-clamp recording of mouse DRG and TG neurons; type: cell-based; details: dyclonine 10 μM
# [4] = biological target: T2, TRPV3 (Mus musculus, UniProt Q8K424); test: Heat-activated TRPV3 currents (infrared laser temperature jump) in HEK 293T cells; type: cell-based
# T2 construct: expressed in transfected cells; host or cells: HEK 293T
# T2 sequence (Q8K424 1-791): T1 sequence (Q8K424 1-791)
# Source text: Conventional whole-cell and excised patch-clamp recording methods were used. For the recombinant expressing system, green fluorescent EGFP was used as a surface marker for gene expression. Recording pipettes were pulled from borosilicate glass capillaries (World Precision Instruments) and fire-polished to a resistance between 2 and 4 MΩ when filled with internal solution containing (in mM) 140 CsCl, 2.0 MgCl2, 5 EGTA, and 10 HEPES, pH 7.4 (adjusted with CsOH). Bath solution contained (in mM): 140 NaCl, 5 KCl, 3 EGTA, and 10 HEPES, pH 7.4 adjusted with NaOH. […] For a subset of recordings, currents were amplified using an Axopatch 200B amplifier (Molecular Devices, Sunnyvale, CA) and recorded through a BNC-2090/MIO acquisition system (National Instruments, Austin, TX) using QStudio developed by Dr. Feng Qin at State University of New York at Buffalo. […] As determined by the conductance tests, the solution around a patch under study was fully controlled by the application of a flow rate of 100 μl/min or greater. […]
# Constant temperature steps were generated by irradiating the tip of an open pipette and using the current of the electrode as the readout for feedback control. […]
SMILES,unitary conductance ([1]; 10 μM 2-APB before dyclonine treatment) [pS],"single-channel open probability ([1]; 10 μM 2-APB without dyclonine, +60 mV)","single-channel open probability ([1]; 10 μM 2-APB without dyclonine, –60 mV)","cell death ratio ([2]; 2-APB (30 μM) alone, 12 hr, averaged from seven experiments)",unitary conductance ([1]; 10 μM 2-APB with 30 μM dyclonine) [pS],"single-channel open probability ([1]; 30 μM dyclonine with 10 μM 2-APB, +60 mV)","single-channel open probability ([1]; 30 μM dyclonine with 10 μM 2-APB, –60 mV)",effect on electrophysiological responses ([3]; DRG and TG neurons),resting membrane potential (RMP) ([3]; DRG neurons),resting membrane potential (RMP) ([3]; TG neurons),"cell death ratio ([2]; dyclonine (50 μM) added to 2-APB (30 μM), averaged)",Hill coefficient nH [4]
"NCCOB(c1ccccc1)c1ccccc1 [2-APB, 2-aminoethoxydiphenyl borate]",163.6 ± 6.4,0.82 ± 0.02,0.8 ± 0.02,43.73% ± 3.46%,–,–,–,–,–,–,–,–
CCCCOc1ccc(C(=O)CCN2CCCCC2)cc1 [dyclonine],–,–,–,–,179.2 ± 5.5,0.12 ± 0.01,0.08 ± 0.01,little effect,–45 ± 0.9 mV,–47.2 ± 1.9 mV,9.12% ± 1.42%,1.9 ± 0.54
